{"source": "patent US12685719B2", "about": "“Treatment of breast cancer with selective androgen receptor modulators and cyclin-dependent kinase 4/6 inhibitors” (UNIVERSITY OF TENNESSEE RESEARCH FOUNDATION, priority 2012, dated 2026)", "format_in_all_cases": "cell-based", "key": {"ER-β": {"target": "T1, ER-β (Rattus norvegicus, UniProt Q62986)", "T1 construct": "expressed in transfected cells", "T1 sequence (Q62986 whole entry)": "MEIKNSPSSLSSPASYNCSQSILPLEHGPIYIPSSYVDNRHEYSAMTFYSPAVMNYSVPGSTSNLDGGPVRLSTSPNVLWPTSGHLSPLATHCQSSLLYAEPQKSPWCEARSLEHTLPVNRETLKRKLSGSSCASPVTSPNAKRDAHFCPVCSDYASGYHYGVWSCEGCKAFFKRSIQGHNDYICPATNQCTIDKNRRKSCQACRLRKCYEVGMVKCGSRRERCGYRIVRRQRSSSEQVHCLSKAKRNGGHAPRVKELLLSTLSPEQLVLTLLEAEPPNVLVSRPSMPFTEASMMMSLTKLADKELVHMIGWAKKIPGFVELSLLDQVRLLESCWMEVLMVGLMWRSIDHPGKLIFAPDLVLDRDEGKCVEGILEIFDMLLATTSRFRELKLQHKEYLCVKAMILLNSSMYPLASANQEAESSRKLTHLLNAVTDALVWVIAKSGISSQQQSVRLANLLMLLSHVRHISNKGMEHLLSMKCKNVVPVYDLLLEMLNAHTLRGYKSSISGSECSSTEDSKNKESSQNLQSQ", "test": "Transcriptional activation (luciferase) in HEK-293 cells, ER-β", "set-up": "activation of ER-β: dose or concentration left out as unconfirmed", "description": "Rat GR, MR, PR, ER-α and ER-β were individually cloned into a pCR3.1 vector backbone. Sequencing was performed to verify the absence of any mutations. HEK-293 cells were plated at 90,000 cells per well of a 24 well plate in Dulbecco's Minimal Essential Media supplemented with 5% charcoal-stripped FBS. The cells were transfected using Lipofectamine (Invitrogen, Carlsbad, CA) with […] GRE-LUC for GR, MR and PR and ERE-LUC for ER-α and ER-β, 0.5 ng CMV-LUC (Renilla luciferase) and 12.5-25 ng of the respective expression vector for each receptor. […] Luciferase assays were performed 48 h after transfection. Transcriptional activation values are represented as firefly luciferase normalized to Renilla luciferase."}, "ER-α": {"target": "T2, ER-α (Rattus norvegicus, UniProt P06211)", "T2 construct": "expressed in transfected cells", "T2 sequence (P06211 1-600)": "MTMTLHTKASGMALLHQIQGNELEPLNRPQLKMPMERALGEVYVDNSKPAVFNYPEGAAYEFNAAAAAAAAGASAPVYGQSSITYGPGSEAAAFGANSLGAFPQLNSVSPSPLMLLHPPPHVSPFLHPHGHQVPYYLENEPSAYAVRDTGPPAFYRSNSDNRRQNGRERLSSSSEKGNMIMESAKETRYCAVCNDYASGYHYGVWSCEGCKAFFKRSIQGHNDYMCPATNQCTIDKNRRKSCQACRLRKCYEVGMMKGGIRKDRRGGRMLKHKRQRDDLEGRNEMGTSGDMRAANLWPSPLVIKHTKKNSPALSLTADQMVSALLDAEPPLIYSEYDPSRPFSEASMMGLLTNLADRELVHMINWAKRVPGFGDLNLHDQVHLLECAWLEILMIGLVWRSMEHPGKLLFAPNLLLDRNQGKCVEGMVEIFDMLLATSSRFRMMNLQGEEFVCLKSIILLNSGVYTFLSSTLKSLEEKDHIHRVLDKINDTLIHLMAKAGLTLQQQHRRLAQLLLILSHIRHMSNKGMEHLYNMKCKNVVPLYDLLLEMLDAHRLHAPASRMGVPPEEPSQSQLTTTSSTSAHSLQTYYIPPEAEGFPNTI", "test": "Transcriptional activation (luciferase) in HEK-293 cells, ER-α", "set-up": "activation of ER-α: dose or concentration left out as unconfirmed", "description": "(§1) Rat GR, MR, PR, ER-α and ER-β were individually cloned into a pCR3.1 vector backbone. Sequencing was performed to verify the absence of any mutations. HEK-293 cells were plated at 90,000 cells per well of a 24 well plate in Dulbecco's Minimal Essential Media supplemented with 5% charcoal-stripped FBS. […] Luciferase assays were performed 48 h after transfection. Transcriptional activation values are represented as firefly luciferase normalized to Renilla luciferase."}, "[1]": {"system": "MDA-MB-231 breast cancer cells stably transfected with AR", "test": "Proliferation of MDA-MB-231 cells stably transfected with AR (Coulter counter)", "conditions": "6 days", "description": "MDA-MB-231 cells stably transfected with AR using lentivirus were treated with the indicated ligands for 6 days and the number of cells counted using Coulter counter."}, "AR": {"target": "T3, AR (Homo sapiens, UniProt P10275)", "T3 construct": "expressed in transfected cells; host or cells: MDA-MB-231", "T3 sequence (P10275 whole entry)": "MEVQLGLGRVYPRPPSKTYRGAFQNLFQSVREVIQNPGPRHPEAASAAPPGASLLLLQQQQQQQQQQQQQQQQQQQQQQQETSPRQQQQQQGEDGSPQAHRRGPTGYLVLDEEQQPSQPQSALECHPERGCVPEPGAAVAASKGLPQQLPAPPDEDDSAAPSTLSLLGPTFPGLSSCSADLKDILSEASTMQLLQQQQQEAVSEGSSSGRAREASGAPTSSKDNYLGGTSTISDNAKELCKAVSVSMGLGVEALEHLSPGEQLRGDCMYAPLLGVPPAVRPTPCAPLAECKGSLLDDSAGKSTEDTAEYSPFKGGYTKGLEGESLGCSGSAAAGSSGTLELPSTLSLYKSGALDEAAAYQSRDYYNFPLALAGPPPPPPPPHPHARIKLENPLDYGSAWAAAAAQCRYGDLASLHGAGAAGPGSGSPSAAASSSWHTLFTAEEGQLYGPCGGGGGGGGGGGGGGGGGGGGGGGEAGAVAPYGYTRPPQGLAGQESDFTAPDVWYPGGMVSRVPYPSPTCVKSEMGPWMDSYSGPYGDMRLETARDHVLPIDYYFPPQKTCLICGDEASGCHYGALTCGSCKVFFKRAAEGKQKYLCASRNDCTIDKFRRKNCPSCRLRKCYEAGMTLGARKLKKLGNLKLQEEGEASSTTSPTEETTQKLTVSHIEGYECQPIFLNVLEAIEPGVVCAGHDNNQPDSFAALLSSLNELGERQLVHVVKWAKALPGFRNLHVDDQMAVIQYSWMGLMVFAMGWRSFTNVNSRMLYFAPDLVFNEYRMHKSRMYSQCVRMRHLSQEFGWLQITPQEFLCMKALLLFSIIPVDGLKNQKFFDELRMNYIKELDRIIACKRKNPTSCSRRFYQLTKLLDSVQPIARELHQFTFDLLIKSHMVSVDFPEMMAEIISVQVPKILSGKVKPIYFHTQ", "test": "AR transactivation (GRE-LUC luciferase) in MDA-MB-231 cells", "conditions": "cells transfected with AR and GRE-LUC", "description": "Though AR transactivation assay was performed in HEK-293 cells, the ability of ligands to function as agonists or antagonists depends on cellular microenvironment. […] The cells were treated 24 h after transfection and luciferase assay performed 48 h after transfection."}, "GR": {"target": "T4, GR (Rattus norvegicus, UniProt P06536)", "T4 construct": "expressed in transfected cells", "T4 sequence (P06536 1-795)": "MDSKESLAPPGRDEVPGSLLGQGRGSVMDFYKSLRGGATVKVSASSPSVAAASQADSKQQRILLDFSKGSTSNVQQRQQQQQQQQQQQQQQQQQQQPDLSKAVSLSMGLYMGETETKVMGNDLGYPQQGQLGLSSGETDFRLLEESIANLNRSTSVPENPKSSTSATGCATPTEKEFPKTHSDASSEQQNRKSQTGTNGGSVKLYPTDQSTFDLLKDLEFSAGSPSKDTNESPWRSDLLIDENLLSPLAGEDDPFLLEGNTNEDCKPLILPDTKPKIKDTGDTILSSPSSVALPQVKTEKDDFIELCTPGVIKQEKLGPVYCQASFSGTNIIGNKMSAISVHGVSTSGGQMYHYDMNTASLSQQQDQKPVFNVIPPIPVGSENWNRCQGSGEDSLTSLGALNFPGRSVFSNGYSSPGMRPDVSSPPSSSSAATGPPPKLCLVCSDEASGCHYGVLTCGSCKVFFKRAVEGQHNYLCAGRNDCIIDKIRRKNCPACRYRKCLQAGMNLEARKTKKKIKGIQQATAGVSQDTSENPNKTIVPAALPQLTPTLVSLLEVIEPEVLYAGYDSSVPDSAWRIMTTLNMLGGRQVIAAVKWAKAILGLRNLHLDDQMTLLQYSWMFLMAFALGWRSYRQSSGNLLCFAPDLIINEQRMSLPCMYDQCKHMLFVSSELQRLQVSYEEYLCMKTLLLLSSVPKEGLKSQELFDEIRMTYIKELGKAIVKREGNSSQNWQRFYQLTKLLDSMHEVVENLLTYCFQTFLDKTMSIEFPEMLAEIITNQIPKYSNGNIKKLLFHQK", "test": "Transcriptional activation (luciferase) in HEK-293 cells, GR", "description": "as §1"}, "[2]": {"conditions": "agonist mode, highest tested concentration"}}, "data": [{"smiles": "C[C@](O)(COc1ccc(C#N)cc1)C(=O)Nc1ccc(C#N)c(C(F)(F)F)c1", "note": "[Formula IX, (S)-N-(4-Cyano-3-(trifluoromethyl)phenyl)-3-(4-cyanophenoxy)-2-hydroxy-2-methylpropanamide]", "values": [{"measurement": "receptor-mediated transactivation of ERβ (stimulate or inhibit)", "setting": "ER-β", "value": "do not stimulate or inhibit"}, {"measurement": "receptor-mediated transactivation of ERα (stimulate or inhibit)", "setting": "ER-α", "value": "do not stimulate or inhibit"}, {"measurement": "proliferation (number of cells)", "setting": "[1]", "value": "inhibited the proliferation"}, {"measurement": "AR agonist activity (transactivation)", "setting": "AR", "value": "agonists of AR"}, {"measurement": "receptor-mediated transactivation of GR (stimulate or inhibit)", "setting": "GR", "value": "do not stimulate or inhibit"}]}, {"smiles": "C[C@](O)(COc1ccc(C#N)cc1)C(=O)Nc1ccc(C#N)c(Cl)c1", "note": "[Formula VIII, (S)-N-(3-chloro-4-cyanophenyl)-3-(4-cyanophenoxy)-2-hydroxy-2-methylpropanamide]", "values": [{"measurement": "receptor-mediated transactivation of ERβ (stimulate or inhibit)", "setting": "ER-β", "value": "do not stimulate or inhibit"}, {"measurement": "activation of ER-β", "setting": "ER-β; [2]", "value": "failed to activate"}, {"measurement": "17β-estradiol-induced ER-β activity", "setting": "ER-β; antagonist mode", "value": "failed to alter"}, {"measurement": "receptor-mediated transactivation of ERα (stimulate or inhibit)", "setting": "ER-α", "value": "do not stimulate or inhibit"}, {"measurement": "activation of ER-α", "setting": "ER-α; [2]", "value": "failed to activate"}, {"measurement": "17β-estradiol-induced ER-α activity", "setting": "ER-α; antagonist mode", "value": "failed to alter"}, {"measurement": "proliferation (number of cells)", "setting": "[1]", "value": "inhibited the proliferation"}, {"measurement": "AR agonist activity (transactivation)", "setting": "AR", "value": "agonists of AR"}, {"measurement": "receptor-mediated transactivation of GR (stimulate or inhibit)", "setting": "GR", "value": "do not stimulate or inhibit"}, {"measurement": "GR-mediated transactivation", "setting": "GR; agonist mode, all the tested concentrations", "value": "did not induce"}, {"measurement": "dexamethasone-induced GR-mediated transactivation", "setting": "GR; antagonist mode", "value": "failed to alter"}]}]}
